From patent EP2338485A1, “Substituted 1,3-dioxoisoindolines as medicine” (Grünenthal GmbH, priority 2009, dated 2011)
Where two headings read alike, the source gives them in different places.

Test system: vGLUT1- bzw. vGLUT2-Transporter
Test: Glutamate uptake into rat crude synaptic vesicles ([3H]-glutamate uptake)
Assay type: biochemical, Ratte
Details: for VGLUT (Ratte), Hemmung [%]: test concentration not given
Excerpt: I. Funktionelle Untersuchung an den vGLUT1- bzw. vGLUT2-Transportern
Die agonistische bzw. antagonistische Wirkung der zu untersuchenden Verbindungen am vGLUT1- bzw. vGLUT2-Transporter der Spezies Ratte kann mit folgendem Assay bestimmt werden.
Glutamat-Uptake in Rattenvesikel ('rat crude synaptic vesicles')
Die Präparation von Vesikeln wurde aus Rattengehirn-homogenaten (männlichen Ratten, Stamm Wistar SPF, 150-250 g Gewicht) durchgeführt gemäß Roseth et al. (1995) J. Neurochem. 65: 96-103, der sich auf Whittaker et al. (1964) Biochem J. 90, 293-303 und Fykse und Fonnum (1988) J. Neurochem. 50: 1237-1242 bezieht.
Hierzu wurden frisch entnommene Rattengehirne in 0,32 M Saccharose, 10 mM TRIS-maleat, 1 mM EGTA, pH 7,4 (10 ml/g Frischgewicht) mit einem Potter-Homogenisator (Fa. Braun/Melsungen; 5 Kolbenhübe bei 800 Upm) unter Eiskühlung homogenisiert und anschließend für 10 Minuten bei 3.000 g und 4°C zentrifugiert. Der resultierende Überstand wurde bei 20.000 g für 30 Minuten bei 4°C zentrifugiert. Das entstandene Pellet wurde dann im Verhältnis 1:3 mit 10 mM TRIS-maleate, 0,1 mM EGTA, pH 7,4 osmotisch geschockt und die Suspension bei 17000g für 30 min (4°C) zentrifugiert. Die im Überstand verbliebenen Vesikel wurden nun auf einen Dichtegradienten aus 0,6 M Saccharose in 10 mM TRIS-maleat, 1 mM EGTA, pH 7.4 und 0.4 M Saccharose in 10 mM TRIS-maleat, 1 mM EGTA, pH 7.4 geschichtet. Eine Ultrazentrifugation der Gradienten im Ausschwingrotor bei 65000g für 2h (4°C) schloss sich an. Die Vesikel-Fraktion wurde von der 0.4 M Saccharose-Bande isoliert und im Uptake-Versuch eingesetzt.
Die Substratlösung für den Uptake von [^3H]-Glutamat bestand aus ATP (neutralisiert mit Trisma base; 2 mM im Endansatz), Glutamat (0.5 mM im Endansatz) und ^3H-Glutamat (0.5 µCi im Endansatz). In 14 ml-Reagiergefäßen (Sarstedt, Artikel-Nr.: 798438) wurden jeweils 0,3 ml Gesamtvolumina (n=2/Probe) pipettiert in der folgenden Reihenfolge: 1.) 165 µl Inkubationspuffer (110 mM Kaliumtartrat, 10 mM TRIS-maleat, pH 7,4, 4 mM MgCl2), 2.) 10 µl Testsubstanz oder Vehikelkontrolle oder blank, 3.) 100 µl synaptische Vesikel. Es schloss sich eine Vorinkubation von 15 min bei 30°C an (nur blank-Ansätze befanden sich hierbei auf Eis). Danach wurde der Uptake durch Zugabe von 25 µl der oben beschriebenen Substratlösung gestartet. Die Reaktion wurde nach 5 min durch Zugabe von 7,0 ml eiskalter 150 mM KCI gestoppt. Anschließend wurden die Proben mit Hilfe des Brandel Cell Harvesters Typ M-24R über einen Membranfilter der Porengröße 0,8 µm abgesaugt und zweimal mit eiskalter 150 mM KCI nachgewaschen. Die Messung erfolgte am beta-Counter nach 15 h in 10 ml Szintillatorflüssigkeit (Filter Count).
Die Affinität der Verbindungen der allgemeinen Formel (I) für den vGLUT1- bzw. vGLUT2-Transporter wurde wie vorstehend beschrieben bestimmt (Pharmakologische Methoden)

[1] = compound freshly dissolved from the solid substance, read-out: VGLUT (Ratte), ICso-Fest

Compound	IC50 (read-out: VGLUT (Ratte), IC50) [nM]	VGLUT (Ratte), Hemmung [%]	IC50 [1] [nM]
O=C(O)c1ccccc1N1C(=O)c2ccc(Oc3ccc(Oc4ccc5c(c4)C(=O)N(c4ccccc4C(=O)O)C5=O)cc3)cc2C1=O [Beispiel 1, 2,2'-(5,5'-(1,4-Phenylenbis(oxy))bis(1,3-dioxoisoindolin-5,2-diyl))dibenzoesäure]	3810	74	
O=C(Nc1ccc(O)cc1C(=O)O)c1ccc(N2C(=O)c3ccc(C(=O)Nc4ccc(O)cc4C(=O)O)cc3C2=O)cc1 [Beispiel 2, 2-(4-(5-(2-Carboxy-4-hydroxyphenylcarbamoyl)-1,3-dioxoisoindolin-2-yl)benzamido)-5-hydroxybenzoesäure]	94.6	98	32
O=C(Nc1ccccc1C(=O)O)c1cccc(N2C(=O)c3ccc(C(=O)Nc4ccccc4C(=O)O)cc3C2=O)c1 [Beispiel 3, 2-(3-(5-(2-Carboxyphenylcarbamoyl)-1,3-dioxoisoindolin-2-yl)benzamido)-benzoesäure]	560	97	
O=C(Nc1ccc(O)cc1C(=O)O)c1ccc(N2C(=O)c3ccc(C(=O)Nc4ccc(O)cc4C(=O)O)cc3C2=O)cc1 [Beispiel 4, 2-(4-(5-(2-Carboxylato-4-hydroxyphenylcarbamoyl)-1,3-dioxoisoindolin-2-yl)-benzamido)-5-hydroxybenzoesäure, Natriumsalz]			154
